Assay results taken from US20260027190A1, “OVARIAN TUMOR DEUBIQUITINASE OXIDATION AND USES THEREOF” (The University of Vermont and State Agricultural College, priority 2022, published 2026).
Residues, ends and D or L forms follow the SMILES beside them. *: point of attachment. Cbz = O=C(OCc1ccccc1)*

Assays:
SLC7A11 = SLC7A11 non-reducing Western blot in MTE cells; format: cell-based, mouse; conditions: MG132 5 micrograms/ml, 24 hours
Method: OTUB1 was previously shown to interfere with ubiquitination and subsequent proteasomal degradation of SLC7A11. A SLC7A11 non-reducing Western blot using MTE cells pretreated with 5 micrograms/ml MG132 or 10 ng/ml IL1B for 24 hours with ACTB used as a loading control was performed (FIG. 7A). In addition, an assessment of GSH levels in MG132-(5 micrograms/ml, 24 hours) (FIG. 7B, left) or bortezomib-(FIG. 7B, right) (0.3 micromolar, 24 hours) treated MTE cells was undertaken (P-value***<0.001, ****<0.0001). Extracellular glutamate levels in MG132-treated MTE cells were also assessed (5 micrograms/ml, 24 hours) (FIG. 7C) (P-value***<0.001, ****<0.0001). The proteasome inhibitors MG132 or bortezomib increased SCL7A11, GSH and extracellular glutamate levels in tracheal epithelial cells (FIGS. 7A-7C), identifying the importance of proteasomal degradation of SLC7A11 in regulating system xC- and glutathione levels.
Bio-Rad DC protein estimation kit was used to determine protein concentration in cell lysates. Equal amounts of proteins were resolved using sodium dodecyl sulfate (SDS)-polyacrylamide gel electrophoresis and transferred to polyvinylidene difluoride (PVDF) membranes, blocked in 5% BSA and incubated with primary antibodies overnight. Membranes were subsequently incubated with peroxidase-conjugated secondary antibodies for one hour and then visualized using chemiluminescence.

[1] = test system: mouse tracheal epithelial (MTE) cells; test: Extracellular glutamate in cell culture supernatant of MTE cells; format: cell-based
From the text: (§1) A regulator of GSH homeostasis is the transporter system xC-, which exports glutamate and concomitantly imports cystine in a 1:1 ratio. Once inside the cells, cystine is reduced to two cysteines, the latter being the rate limiting amino acid required for GSH synthesis. These relationships were examined further. […] To address whether IL1B-induced increases in GSH are system xC- dependent, two system xC- inhibitors, erastin (Er) and sulfasalazine (SAS) were used. Cells were pretreated for one hour, followed by IL1B treatment for 24 hours. Then, GSH levels were measured in cells exposed to increasing doses of Er or SAS (FIG. 2G). Extracellular glutamate levels in cell culture supernatant of cells pretreated with 0.5 micromolar Er (left) or 100 micromolar SAS (right) for 1 hour before IL1B stimulation were also measured (FIG. 2H). […] System xC- inhibition is known to induce ferroptosis, an iron-dependent mode of cell death characterized by increased lipid peroxidation. However, no changes in cell viability using erastin (5 micromolar) or sulfasalazine (500 micromolar) were detected (FIG. 2I; P-value*<0.05, ***<0.001, ****<0.0001).
(§2) Primary mouse tracheal epithelial (MTE) cells were isolated from C57BL/6NJ wild-type or C57BL6/NJ mice lacking Glrx1 gene and cultured. Cells were grown on collagen coated plastic plates or transwell inserts with media change every 2 days until confluency. For interleukin 1B (IL1B) treatment: cells were incubated in plain Dulbecco's Modified Eagle Medium (DMEM): F12 media containing 6 mM glucose and 2 mM glutamine overnight followed by stimulation with 10 ng/ml IL1B or 0.1% bovine serum albumin (BSA) in phosphate buffered saline (PBS) (vehicle control) for 24 hours. Treatment with crastin, sulfasalazine or BSO occurred 1 hour before IL1B stimulation. Media and cells were collected for further analysis. For growing H522 and OTUB1-CRISPR-H522 cells: Roswell Park Memorial Institute (RPMI) media supplemented with 10% fetal bovine serum (FBS) and 1% pen/strep was used to grow the cells. Plasmid over-expression and OTUB1 knock-down experiments were done when cells were 60-70% confluent.
Glutamate in media was measured using Biovision kit following manufacturer's protocol.

[2] = test system: mouse tracheal epithelial (MTE) cells; test: Total GSH measurement (DTNB assay) in MTE cells; format: cell-based
Method: It has been previously shown that the pleotropic cytokine IL1B augments glycolysis in lung epithelial cells, and that interleukin 1B (IL1B) is linked to oxidative stress. The pentose phosphate pathway, an offshoot of glycolysis, regulates the redox environment by providing nicotinamide adenine dinucleotide phosphate (NADPH) reducing equivalents necessary for glutathione (GSH) homeostasis. The effects of GSH in response to IL1B were examined. Briefly, GSH was measured using a 5,5′-dithio-bis (2-nitrobenzoic acid) (DTNB) assay in both control and IL1B-stimulated mouse tracheal epithelial cells. […] Statistics on the left panel represent the total GSH levels, without differentiating between labeled and unlabeled portions of GSH (P-value*<0.05, ****<0.0001).
as §1, §2
Cell lysates were prepared in 100 mM potassium phosphate buffer containing 0.6% sulfosalicylic acid, 1 mM ethylenediaminetetraacetic acid (EDTA) and 0.01% triton-x-100. To measure total glutathione (GSH), equal amounts of proteins were incubated with 3 micromolar 5,5′-dithio-bis (2-nitrobenzoic acid) (DTNB) reagent and 2.25 microgram/ml glutathione reductase followed by the addition of 240 micromolar Nicotinamide adenine dinucleotide phosphate (NADPH). Kinetic absorbance was measured every minute at 412 nm for 20 minutes. […]

[3] = test system: mouse tracheal epithelial (MTE) cells; test: Calcein AM cell viability in MTE cells; format: cell-based; conditions: sulfasalazine 500 micromolar
From the text: Invitrogen Live/Dead viability/cytotoxicity kit was used to measure cell viability according to manufacturer's instruction. Data was expressed as percentage survival compared to control untreated cells.

[4] = test system: mouse tracheal epithelial (MTE) cells; test: Total PSSG in MTE cells treated with recombinant GLRX; format: cell-based; conditions: direct administration of recombinant protein to MTE cells
Method: OTUB1 was one of the PSSG targets detected in IL1B-stimulated epithelial cells raising the possibility that S-glutathionylation of OTUB1 affects the stability of SLC7A11. To investigate this, immunoprecipitation of GSH followed by Western Blotting of OTUB1 in MTE cells treated with vehicle or IL1B was performed. Dithiothreitol (DTT) was incubated with cell lysates prior to immunoprecipitation as a negative control. OTUB1 levels from whole cell lysates were used as the input control. Increases in OTUB1 S-glutathionylation (OTUB1-SSG) in response to IL1B were observed, with further increases occurring in cells lacking Glrx (FIG. 4G), consistent with the role of GLRX as a deglutathionylating enzyme. Western blots were performed using cells treated with the WT- or C23S-mutant GLRX recombinant protein to examine the presence of glutaredoxin (FIG. 4H) and total PSSG (FIG. 4I) (P-value*<0.05, **<0.01, ***<0.001, ****<0.0001). […] Glutathione was evaluated in MTE cells treated with recombinant WT- or C23S-mutant GLRX (FIG. 4J) and glutamate in cell culture supernatant of MTE cells treated with WT or the C23S mutant GLRX was also evaluated (FIG. 4K). […]
Cell lysates were prepared in 100 mM potassium phosphate buffer containing 0.6% sulfosalicylic acid, 1 mM ethylenediaminetetraacetic acid (EDTA) and 0.01% triton-x-100. […] Kinetic absorbance was measured every minute at 412 nm for 20 minutes. […]

OTUB1 = test: OTUB1-SSG: GSH immunoprecipitation followed by OTUB1 Western blot; format: cell-based, mouse; conditions: cells treated with recombinant protein
Method: OTUB1 was one of the PSSG targets detected in IL1B-stimulated epithelial cells raising the possibility that S-glutathionylation of OTUB1 affects the stability of SLC7A11. To investigate this, immunoprecipitation of GSH followed by Western Blotting of OTUB1 in MTE cells treated with vehicle or IL1B was performed. Dithiothreitol (DTT) was incubated with cell lysates prior to immunoprecipitation as a negative control. OTUB1 levels from whole cell lysates were used as the input control. Increases in OTUB1 S-glutathionylation (OTUB1-SSG) in response to IL1B were observed, with further increases occurring in cells lacking Glrx (FIG. 4G), consistent with the role of GLRX as a deglutathionylating enzyme. Western blots were performed using cells treated with the WT- or C23S-mutant GLRX recombinant protein to examine the presence of glutaredoxin (FIG. 4H) and total PSSG (FIG. 4I) (P-value*<0.05, **<0.01, ***<0.001, ****<0.0001). GAPDH was used as a loading control. Glutathione was evaluated in MTE cells treated with recombinant WT- or C23S-mutant GLRX (FIG. 4J) and glutamate in cell culture supernatant of MTE cells treated with WT or the C23S mutant GLRX was also evaluated (FIG. 4K). […]

[5] = MG132 5 micrograms/ml, 24 hours, MTE cells
[6] = direct administration of recombinant protein to MTE cells

In the case of `CC(C)C[C@@H](C=O)NC(=O)[C@H](CC(C)C)NC(=O)[C@H](CC(C)C)NC(=O)OCc1ccccc1` [MG132] (Cbz-Leu-Leu-Leu-aldehyde), the SLC7A11 levels (SLC7A11) is reported as “increased”, the extracellular glutamate levels [1, 5] is reported as “increased” and the GSH levels [2, 5] is reported as “increased”.

For `CC(C)C[C@H](NC(=O)[C@H](Cc1ccccc1)NC(=O)c1cnccn1)B(O)O` [bortezomib], the GSH levels ([2]; bortezomib 0.3 micromolar, 24 hours, MTE cells) was “increased”.

In the case of `O=C(O)c1cc(/N=N/c2ccc(S(=O)(=O)Nc3ccccn3)cc2)ccc1O` [sulfasalazine], the cell viability [3] is reported as “no changes”, the “IL1B-induced extracellular glutamate levels” value ([1]; MTE cells pretreated with 100 micromolar SAS for 1 hour before IL1B stimulation) is reported as “significantly decreased” and the “IL1B-induced increases in GSH” value ([2]; MTE cells pretreated 1 hour with increasing doses of Er or SAS, then IL1B 24 hours) is reported as “significantly decreased”.

B1: C23S GLRX: catalytically inactive C23S mutant GLRX recombinant protein (protein, UniProt P35754 2-106, looked up, variant C23S)
Glutaredoxin-1: AQEFVNCKIQPGKVVVFIKPTSPYCRRAQEILSQLPIKQGLLEFVDITATNHTNEIQDYLQQLTGARTVPRVFIGKDCIGGCSDLVSLQQSGELLTRLKQIGALQ
With B1 the extracellular glutamate [1, 6] was “did not elicit these effects”, the GSH levels [2, 6] was “did not elicit these effects” and the “overall PSSG” value [4] was “did not elicit these effects”. The “OTUB1-SSG (OTUB1 S-glutathionylation)” value (OTUB1) was “not”.
